Assay results published in patent US7829524B2, “Antimicrobial peptides” (Novozymes Adenium Biotech A/S, priority 2003, dated 2010).
Like-named read-outs stand apart in the source and are kept apart here. Where no end group is shown, it is not given here.

How the values were obtained:
[1] = system: Micrococcus luteus (ATCC9341); type: cell-based; conditions: ATCC9341
Protocol: (§1) According to the NCCLS guidelines for susceptibility test of novel antimicrobial compounds, we found a broad spectrum of activity of Cat1 (Methods for Dilution Antimicrobial Susceptibility Tests for Bacteria That Grow Aerobically; Approved Standard-Fifth Edition. NCCLS document M7-A5 (ISBN1-56238-394-9)).
(§2) In another campaign, the specific MICs of Cat1 were determined against a variety of microbial strains relevant for wound infections. As recommended in the above-mentioned NCCLS protocol, the strains were grown in cationic adjusted Muller-Hinton Broth. The highest concentration tested was 32 μg/ml.
(§3) The antimicrobial activity of the polypeptides of the invention was analyzed using the Microdilution Broth Assay (see Example 1) with Mueller Hinton Broth (MHB) media. Four different bacterial strains were tested in this setup; Micrococcus luteus (ATCC 9341), Pseudomonas aeruginosa (ATCC 27853), Escherichia coli (ATCC 10536) and Klebsiella pneumoniae (DSM681). The amino acid sequence of the polypeptides and the Minimal Inhibitory concentrations (MIC, microgram/ml) obtained is presented in Table 7 below.

E. coli TOP10 = type: cell-based
Protocol: A range of synthetic antimicrobial polypeptides were expressed in E. coli TOP10 (Invitrogen) using arabinose as inducer, as disclosed in Example 1 of International patent application WO 00/73433 (with minor modifications). […] Briefly, fresh overnight cultures grown in RM medium containing 0.2% glucose and ampicillin (100 μg/ml) were diluted 300-fold into 150 microliter of RM containing 0.2% glycerol and ampicillin (100 μg/ml) and different concentrations of arabinose (0, 0.01% or 0.1%) in a microtiter plate and incubated at 37 degrees Celsius with vigorous shaking. The growth curve was monitored by measuring OD450 using a Bioscreen C Microbiology reader (Thermo Electron Corporation) at intervals of 30 minutes for 14 hours (see Invitrogen protocol of the pBAD/gill A, B and C vectors catalogue nos. V450-01 for buffer and media composition). The percentage of growth inhibition was calculated as the end point OD measurement of each sample divided by the end point OD measurement obtained from cells containing the control vector and multiplied by 100. The formula is the following: [formula] where “blank OD” corresponds to the OD of an empty well.

[2] = system: Eschericia coil (ATCC10536); type: cell-based, Escherichia coli; conditions: ATCC10536
Protocol: as §1, §3

Escherichia coli Top10 = experiment: Radial Diffusion Assay using minimal conditions (MEC); type: cell-based; conditions: Table 8
Protocol: (§4) A modified version of a previously published protocol has been applied in the detection of antimicrobial activity (Lehrer et al., (1991) Ultra sensitive assays for endogenous antimicrobial polypeptides J Immunol Methods 137: 167-173). Target bacteria (10^6 colony forming units (CFU)) were added to 10 ml of underlay agarose (1% low electro-endosmosis agarose, 0.03% Trypticase soy broth, 10 mM sodium phosphate, pH 7.4, 37 degrees Celsius). Suspension was solidified on an INTEGRID Petri Dish (Becton Dickinson Labware). A 3 mm Gel Puncher was used to make holes in the underlay agarose (Amersham Pharmacia Biotech, Sweden). Samples were added to the holes and incubated at 37 degrees Celsius, 3 hours. An overlay was poured on top and the plate was incubated overnight (LB media, 7.5% Agar). Antimicrobial activity was seen as bacterial clearing zones around the wells. Living cells was counterstained by adding 10 ml, 0.2 mM MTT (3-(4,5-Dimethylthiazol-2-yl)-2,5-diphenyltetrazolium bromide Thiazolyl blue).
(§5) The antimicrobial activity of the polypeptides of the invention was also analyzed in a Radial Diffusion Assay (see Example 1) using minimal conditions. Two bacterial strains were tested in this setup; Staphylococcus camosus and Escherichia coli Top10. The amino acid sequence of the polypeptides and the Minimal Effective Concentration (MEC, microgram/ml) obtained is presented in table 8 below.

Staphylococcus camosus = experiment: as above; type: cell-based; conditions: Table 8
Protocol: as §4, §5

[3] = system: Pseudomonas aeroginosa (ATCC27853); type: cell-based, Pseudomonas aeruginosa; conditions: ATCC27853
Protocol: as §1, §2
Minimal inhibitory concentrations of Cat1 were also determined using cation-adjusted Mueller hinton broth (MHB) in the microbroth dilution assay, wherein MHB was used with different modifications as depicted in Table 2 below. The selected test organism was Pseudomonas aeroginosa (ATCC 27853). […]

[4] = system: Klebsiella pneumoniae (DSM681); type: cell-based
Protocol: as §1, §3

[5] = Table 4, 0.01% arabinose, end point OD450, 14 hours
[6] = Table 4, 0.1% arabinose, end point OD450, 14 hours
[7] = Table 5, 0.1% arabinose, end point OD450, 14 hours
[8] = Table 6, 0.01% arabinose, end point OD450, 14 hours
[9] = Table 6, 0.1% arabinose, end point OD450, 14 hours

GLLKRLGRKIGKKLKKIAR [SEQ ID NO: 66, GLLKRLGRKIGKKLKKIAR]
MIC [1]: 64 µg/mL | Growth inhibition using 0.01% arabinose (%) (E. coli TOP10; TOP10, 14 h): 92% | Growth inhibition using 0.1% arabinose (%) (E. coli TOP10; TOP10, 14 h): 100% | MIC [2]: 8 µg/mL | MEC (Escherichia coli Top10): 13.5 µg/mL | MEC (Staphylococcus camosus): 2 µg/mL | MIC [3]: 64 µg/mL

GLLRRFRKKIGKKLKKIAR [SEQ ID NO: 62, GLLRRFRKKIGKKLKKIAR]
MIC [1]: 64 µg/mL | Growth inhibition using 0.01% arabinose (%) (E. coli TOP10; TOP10, 14 h): 94% | Growth inhibition using 0.1% arabinose (%) (E. coli TOP10; TOP10, 14 h): 98% | MIC [2]: 16 µg/mL | MEC (Escherichia coli Top10): 28.0 µg/mL | MEC (Staphylococcus camosus): 1.1 µg/mL | MIC [4]: 32 to 64 µg/mL | MIC [3]: 64 µg/mL

GLLRRFWKKIGKKLKKFGQKIKPLPKLVP [SEQ ID NO: 41]
MIC [1]: 32 µg/mL | Growth inhibition using 0.1% arabinose (%) (E. coli TOP10; TOP10, 14 h): 96% | MIC [2]: 32 µg/mL | MEC (Escherichia coli Top10): 16.6 µg/mL | MEC (Staphylococcus camosus): 3.8 µg/mL | MIC [4]: 32 µg/mL | MIC [3]: 16 µg/mL

GLLRRLRKKIGKKLKFFGQKIKHIRILVP (GLLRRLRKKIGKKLKKFGQKIKHIRILVP; Synthetic antimicrobial peptide) [SEQ ID NO: 7]
Growth inhibition using 0.01% arabinose (%) (E. coli TOP10; [5]): 93% | Growth inhibition using 0.1% arabinose (%) (E. coli TOP10; [6]): 100%

GLLRRLRKKIGKKLKKIAR [SEQ ID NO: 59, GLLRRLRKKIGKKLKKIAR]
MIC [1]: 32 µg/mL | Growth inhibition using 0.01% arabinose (%) (E. coli TOP10; TOP10, 14 h): 93% | Growth inhibition using 0.1% arabinose (%) (E. coli TOP10; TOP10, 14 h): 100% | MIC [2]: 16 µg/mL | MEC (Escherichia coli Top10): 18.3 µg/mL | MEC (Staphylococcus camosus): 1.8 µg/mL | MIC [4]: 32 µg/mL | MIC [3]: 8 µg/mL

GLLRRLRKKIGKKLKKIGQKIKPIRKLVP (Synthetic antimicrobial peptide) [SEQ ID NO: 56]
Growth inhibition using 0.1% arabinose (%) (E. coli TOP10; [7]): 94%

GLLRRLRKKIGKKLKKITR (Synthetic antimicrobial peptide) [SEQ ID NO: 63]
Growth inhibition using 0.01% arabinose (%) (E. coli TOP10; [8]): 95% | Growth inhibition using 0.1% arabinose (%) (E. coli TOP10; [9]): 99%

GLLRRLRKKIGRKFKKIAR (Synthetic antimicrobial peptide) [SEQ ID NO: 68]
Growth inhibition using 0.01% arabinose (%) (E. coli TOP10; [8]): 91% | Growth inhibition using 0.1% arabinose (%) (E. coli TOP10; [9]): 100%

GLLRRLRNKIRKKLKKFGQKIKAIRILVP (Synthetic antimicrobial peptide) [SEQ ID NO: 16]
Growth inhibition using 0.01% arabinose (%) (E. coli TOP10; [5]): 96% | Growth inhibition using 0.1% arabinose (%) (E. coli TOP10; [6]): 100%

GLLRRLRRKIGGKLKKFGQKIKPLRKLVP (Synthetic antimicrobial peptide) [SEQ ID NO: 6]
Growth inhibition using 0.01% arabinose (%) (E. coli TOP10; [5]): 92% | Growth inhibition using 0.1% arabinose (%) (E. coli TOP10; [6]): 100%

GLLRRLRRKIGKKFKKIGQVIKHLRKLVP (Synthetic antimicrobial peptide) [SEQ ID NO: 32]
Growth inhibition using 0.1% arabinose (%) (E. coli TOP10; [7]): 97%

GLLRRLRRKIGKKLKKFGQKIKHIRILVP (Synthetic antimicrobial peptide) [SEQ ID NO: 15]
Growth inhibition using 0.01% arabinose (%) (E. coli TOP10; [5]): 96% | Growth inhibition using 0.1% arabinose (%) (E. coli TOP10; [6]): 100%

GLLRRLWKKIGRKFKKYGQVIKHIRKLVP (Synthetic antimicrobial peptide) [SEQ ID NO: 48]
Growth inhibition using 0.1% arabinose (%) (E. coli TOP10; [7]): 97%

GLLRRLWRKIGRKLKKYGQKIKALRKLVP [SEQ ID NO: 13]
MIC [1]: 32 µg/mL | Growth inhibition using 0.01% arabinose (%) (E. coli TOP10; TOP10, 14 h): 96% | Growth inhibition using 0.1% arabinose (%) (E. coli TOP10; TOP10, 14 h): 100% | MIC [2]: 64 µg/mL | MEC (Escherichia coli Top10): 27.0 µg/mL | MEC (Staphylococcus camosus): 4.4 µg/mL | MIC [4]: 32 µg/mL | MIC [3]: 32 µg/mL

GLVRRFRRKIGKKLKKIGQIIKAIRKLVP (Synthetic antimicrobial peptide) [SEQ ID NO: 31]
Growth inhibition using 0.1% arabinose (%) (E. coli TOP10; [7]): 96%

GRFKRFWKKIGRKFKKIGQMLKPIRILVP (Synthetic antimicrobial peptide) [SEQ ID NO: 9]
Growth inhibition using 0.01% arabinose (%) (E. coli TOP10; [5]): 96% | Growth inhibition using 0.1% arabinose (%) (E. coli TOP10; [6]): 100%

GRFKRLRKKIGKKFKKIGQKIKDIRKLIVP (GRFKRLRKKIGKKFKKIGQKIKDIRKLVP; Synthetic antimicrobial peptide) [SEQ ID NO: 51]
Growth inhibition using 0.1% arabinose (%) (E. coli TOP10; [7]): 97%

GRFRRFRKKIGGKLKKIGQVIKDIRILVP (Synthetic antimicrobial peptide) [SEQ ID NO: 28]
Growth inhibition using 0.1% arabinose (%) (E. coli TOP10; [7]): 95%

GRFRRFRKKIGKKFKKFGQMIKALRILVP (Synthetic antimicrobial peptide) [SEQ ID NO: 29]
Growth inhibition using 0.1% arabinose (%) (E. coli TOP10; [7]): 95%

GRFRRFRKKIGKKLKKIGLVIKHIRILVP (Synthetic antimicrobial peptide) [SEQ ID NO: 14]
Growth inhibition using 0.01% arabinose (%) (E. coli TOP10; [5]): 94% | Growth inhibition using 0.1% arabinose (%) (E. coli TOP10; [6]): 100%

GRFRRLGRKIGEKLKKFGQVIKAIRILVP (Synthetic antimicrobial peptide) [SEQ ID NO: 42]
Growth inhibition using 0.1% arabinose (%) (E. coli TOP10; [7]): 95%

GRIKRVGEKIGKKLKKIGQVIKHLRILVP (Synthetic antimicrobial peptide) [SEQ ID NO: 38]
Growth inhibition using 0.1% arabinose (%) (E. coli TOP10; [7]): 96% | MEC (Escherichia coli Top10): 8.5 µg/mL | MEC (Staphylococcus camosus): 8 µg/mL

GRIRRLRRKIRKKLKKYGQKIKAIRKIVP (GRLRRLRRKIRKKLKKYGQKIKAIRKLVP; Synthetic antimicrobial peptide) [SEQ ID NO: 27]
Growth inhibition using 0.1% arabinose (%) (E. coli TOP10; [7]): 96%

GRLRRFGKKIGKKIKKFGQLIKALRILVP (GRLRRFGKKIGKKLKKFGQLIKALRILVP; Synthetic antimicrobial peptide) [SEQ ID NO: 40]
Growth inhibition using 0.1% arabinose (%) (E. coli TOP10; [7]): 95%

GRLRRFRKKIGKKLKKIGQMIKHIRILVP (Synthetic antimicrobial peptide) [SEQ ID NO: 30]
Growth inhibition using 0.1% arabinose (%) (E. coli TOP10; [7]): 95%

GRLRRLGKIUGEKLKKFGQMIKHIRILVP (GRLRRLGKKIGEKLKKFGQMIKHIRILVP; Synthetic antimicrobial peptide) [SEQ ID NO: 53]
Growth inhibition using 0.1% arabinose (%) (E. coli TOP10; [7]): 84%

GRLRRLRRKIGEKLKKFGQVIKALRILVP (Synthetic antimicrobial peptide) [SEQ ID NO: 12]
Growth inhibition using 0.01% arabinose (%) (E. coli TOP10; [5]): 94% | Growth inhibition using 0.1% arabinose (%) (E. coli TOP10; [6]): 99%

GRLRRLWRKIGRKLKKYGQVIKHLRILVP (Synthetic antimicrobial peptide) [SEQ ID NO: 17]
Growth inhibition using 0.01% arabinose (%) (E. coli TOP10; [5]): 94% | Growth inhibition using 0.1% arabinose (%) (E. coli TOP10; [6]): 100%
